Results taken from the supplement of paper PMC10307832.

Assays:
Assay in all cases: relative viability (nuclei count vs DMSO), 5 days (fraction); higher = more cells survive
[1] = compound: C1COCCN1C2=NC(=NC3=C2OC4=C3C=CC=N4)C5=CC(=CC=C5)NC(=O)C6=CN=C(C=C6)N + CS(=O)(=O)N1CCN(Cc2cc3nc(-c4cccc5[nH]ncc45)nc(N4CCOCC4)c3s2)CC1 [Pictilisib] (partner 1 µM)
Method in brief: (§1)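 Lung cancer cell lines, seeded in 1536-well plates, were treated the following day by pin tool with a single drug or with five library-drug doses (not always all listed) in √10 steps on top of a fixed anchor-drug dose. Cells were fixed and nuclei stained in one step after 5 days, and nuclei were counted. Relative viability is the nuclei count for treated wells divided by that for vehicle wells, reported as medians of duplicate plates.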

SGI-1776 + Olaparib = compound: CN1CCC(CNc2ccc3ncc(-c4cccc(OC(F)(F)F)c4)n3n2)CC1 [SGI-1776] + O=C(c1cc(Cc2n[nH]c(=O)c3ccccc23)ccc1F)N1CCN(C(=O)C2CC2)CC1 [Olaparib] (partner 8 µM)
Method in brief: as §1

SGI-1776 + Phenformin = compound: CN1CCC(CNc2ccc3ncc(-c4cccc(OC(F)(F)F)c4)n3n2)CC1 [SGI-1776] + N=C(N)NC(=N)NCCc1ccccc1 [Phenformin] (partner 250 µM)
Method in brief: as §1

Entinostat + Crizotinib = compound: Nc1ccccc1NC(=O)c1ccc(CNC(=O)OCc2cccnc2)cc1 [Entinostat] + C[C@@H](Oc1cc(-c2cnn(C3CCNCC3)c2)cnc1N)c1c(Cl)ccc(F)c1Cl [Crizotinib] (partner 1 µM)
Method in brief: as §1

Row | Cell Line | relative viability ([1]; first compound 0.02 µM) | relative viability ([1]; first compound 0.06325 µM) | relative viability ([1]; first compound 0.2 µM) | relative viability ([1]; first compound 0.6325 µM) | relative viability ([1]; first compound 2 µM) | relative viability (SGI-1776 + Olaparib; first compound 0.08 µM) | relative viability (SGI-1776 + Olaparib; first compound 0.8 µM) | relative viability (SGI-1776 + Olaparib; first compound 2.53 µM) | relative viability (SGI-1776 + Olaparib; first compound 8 µM) | relative viability (SGI-1776 + Phenformin; first compound 0.08 µM) | relative viability (SGI-1776 + Phenformin; first compound 0.8 µM) | relative viability (SGI-1776 + Phenformin; first compound 2.53 µM) | relative viability (SGI-1776 + Phenformin; first compound 8 µM) | relative viability (Entinostat + Crizotinib; first compound 0.02 µM) | relative viability (Entinostat + Crizotinib; first compound 0.06325 µM) | relative viability (Entinostat + Crizotinib; first compound 0.2 µM) | relative viability (Entinostat + Crizotinib; first compound 0.6325 µM) | relative viability (Entinostat + Crizotinib; first compound 2 µM)
1 | NCI-H1993 | 0.76 | 0.708 | 0.861 | 0.791 | 0.85 | 0.989 | 0.943 | 1.01 | 0.955 | 0.538 | 0.515 | 0.515 | 0.492 | 0.832 | 0.848 | 0.774 | 0.76 | 0.597
2 | NCI-H2009 | 0.8 | 0.819 | 0.804 | 0.804 | 0.603 | 0.714 | 0.769 | 0.688 | 0.623 | 0.407 | 0.394 | 0.381 | 0.3 | 0.984 | 1.06 | 0.965 | 0.877 | 0.556
3 | NCI-H2023 | 0.273 | 0.211 | 0.216 | 0.23 | 0.193 | 0.499 | 0.516 | 0.51 | 0.347 | 0.379 | 0.377 | 0.332 | 0.282 | 0.526 | 0.596 | 0.324 | 0.17 | 0.109
4 | NCI-H2085 | 0.441 | 0.474 | 0.464 | 0.446 | 0.421 | 0.758 | 0.797 | 0.926 | 0.794 | 0.852 | 0.8 | 0.795 | 0.58 | 0.991 | 0.933 | 0.769 | 0.57 | 0.414
5 | NCI-H2087 | 0.881 | 0.848 | 0.876 | 0.807 | 0.642 | 0.601 | 0.637 | 0.727 | 0.521 | 0.444 | 0.394 | 0.432 | 0.44 | 0.716 | 0.672 | 0.818 | 0.559 | 0.467
6 | NCI-H2126 | 0.455 | 0.524 | 0.486 | 0.521 | 0.442 | 0.99 | 0.936 | 0.911 | 0.91 | 0.543 | 0.509 | 0.535 | 0.473 | 1.01 | 1.06 | 0.954 | 0.89 | 0.58
7 | NCI-H2170 | 0.328 | 0.316 | 0.299 | 0.299 | 0.304 | 0.638 | 0.686 | 0.651 | 0.614 | 0.388 | 0.382 | 0.345 | 0.307 | 1.17 | 1.06 | 1.02 | 0.704 | 0.491
8 | NCI-H2228 | 0.486 | 0.346 | 0.38 | 0.234 | 0.256 | 0.671 | 0.762 | 0.548 | 0.396 | 0.345 | 0.327 | 0.286 | 0.164 | 0.479 | 0.429 | 0.337 | 0.378 | 0.221
9 | NCI-H2347 | 0.735 | 0.703 | 0.601 | 0.619 | 0.497 | 0.606 | 0.674 | 0.632 | 0.614 | 0.652 | 0.44 | 0.333 | 0.396 | 0.686 | 0.581 | 0.653 | 0.5 | 0.408
10 | NCI-H2405 | 0.431 | 0.45 | 0.414 | 0.428 | 0.423 | 0.828 | 0.879 | 0.789 | 0.712 | 0.384 | 0.304 | 0.215 | 0.227 | 0.85 | 0.887 | 0.906 | 0.805 | 0.598
11 | NCI-H3122 | 0.621 | 0.588 | 0.531 | 0.515 | 0.451 | 0.688 | 0.697 | 0.62 | 0.647 | 0.371 | 0.328 | 0.309 | 0.278 | 0.28 | 0.265 | 0.319 | 0.313 | 0.334
12 | PC-3 [JPC-3] | 0.754 | 0.831 | 0.739 | 0.798 | 0.629 | 1.13 | 1.14 | 1.11 | 0.797 | 0.509 | 0.476 | 0.511 | 0.451 | 0.965 | 1.01 | 0.79 | 0.658 | 0.44
13 | PC-14 | 0.903 | 1.05 | 0.512 | 0.558 | 0.261 | 0.285 | 0.367 | 0.305 | 0.114 | 0.573 | 0.648 | 0.579 | 0.151 | 0.849 | 0.928 | 0.916 | 0.37 | 0.159
14 | RERF-LC-KJ | 0.46 | 0.618 | 0.508 | 0.507 | 0.478 | 0.866 | 0.92 | 0.802 | 0.586 | 0.464 | 0.415 | 0.439 | 0.32 | 0.844 | 0.75 | 0.754 | 0.431 | 0.233
15 | SK-LU-1 | 0.553 | 0.671 | 0.634 | 0.536 | 0.467 | 0.514 | 0.5 | 0.452 | 0.5 | 0.528 | 0.494 | 0.37 | 0.322 | 0.935 | 0.756 | 0.733 | 0.572 | 0.511
16 | SK-MES-1 | 0.31 | 0.407 | 0.369 | 0.353 | 0.317 | 0.772 | 0.744 | 0.664 | 0.347 | 0.643 | 0.593 | 0.53 | 0.493 | 0.984 | 1.03 | 1.09 | 0.955 | 0.67
17 | SW 1573 | 0.555 | 0.54 | 0.621 | 0.534 | 0.344 | 0.381 | 0.428 | 0.475 | 0.297 | 0.381 | 0.31 | 0.356 | 0.275 | 0.848 | 0.865 | 0.937 | 0.761 | 0.592
